{
  "source": "patent US20250177405A1",
  "about": "“METHODS OF TREATING NEUROLOGICAL AND CARDIOVASCULAR CONDITIONS” (ASTROCYTE PHARMACEUTICALS, INC., priority 2021, published 2025)",
  "key": {"[1]": {"system": "cynomolgus monkey model of transient middle cerebral artery occlusion (tMCAO)", "assay": "transient middle cerebral artery occlusion (tMCAO) stroke model, MRI lesion and penumbra volume", "format": "in vivo, Macaca fascicularis", "settings": "for overall DWI lesion volume smaller compared to vehicle: I-1 composite", "description": "A total of 25 adult male Macaca fascicularis macaques were used in this study, with ages ranging from 47-83 months and weights ranging from 2.7-5.4 kg.\nUnder deep anesthesia, the right eyeball was removed, and the orbital content was dissected and excised using a surgical microscope (KOM300, Konan Medical Inc., Hogo, Japan). A window of approximately 10 mm in diameter was opened just anterior to the foramen of the optic canal at the base of the skull, allowing identification of the right middle cerebral artery (MCA) main trunk beneath the dura. After opening the dura mater, tMCAO was performed using 2 microvascular clips (Sugita TII, 17-001-81, Mizuho Medical, Tokyo, Japan), one on the proximal part of the main MCA trunk and the other on the distal-to-orbitofrontal brunch. Four hours after tMCAO, these clips were removed. After visual confirmation of recanalization of MCA blood flow, the burr hole was closed using Clearfil New Bond (Kuraray Noritake Dental, Inc., Tokyo, Japan) and the orbital cavity was closed according to best veterinary practice.\nTransorbital transient MCA occlusion (tMCAO) was performed using 2 microvascular clips, one placed on the proximal part of the main MCA trunk and the other on the distal-to-orbitofrontal branch (references 10, 11, 24). Four hours after MCA occlusion, these clips were removed for recanalization. After visual confirmation of restituted MCA blood flow, the burr hole was closed using Clearfil New Bond (Kuraray Noritake Dental, Inc., Tokyo, Japan) and the orbital cavity was closed according to best veterinary practice.\nSerial coronal magnetic resonance imaging (MRI) of the brain (3 mm slice thickness) was performed 0.5, 1.5, 1.8, 3.5, 6.0, 24 and 120 h post-occlusion. Imaging sequences were (i) diffusion-weighted imaging (DWI), arterial spin labeling (ASL), (ii) magnetic resonance angiography (MRA), and (iii) fluid-attenuated inversion-recovery (FLAIR) T2-weighted imaging. Apparent diffusion coefficient (ADC) maps, cerebral blood flow (CBF), and perfusion deficit were generated with FuncTool Performance (GE Healthcare, Milwaukee, WI, USA) available on the MRI scanner console. Inhibition of lesion volume was considered the primary efficacy endpoint. Penumbral volume (mm^3) was calculated by subtracting the lesion volume delineated from the DWI diffusion maps from the total calculated perfusion deficit.\nThe infarct (lesion) areas (mm^2) of each coronal image were marked using OsiriX version 8.0.2 (Pixmeo SARL, Bernex, Switzerland). The infarct was manually delineated using DWI maps. The lesion volume (mm^3) was calculated as the sum of the product of each section's infarct area and slice thickness (3 mm). […] The perfusion deficit (mm^3) was calculated from ASL maps as a reduction to <30% and <50% of the corresponding region of the contralateral side. […] Penumbral volume (mm^3) was calculated by subtracting the lesion volume delineated from the DWI diffusion maps from the total calculated perfusion deficit.\n(§1) Macaques received a bolus dose of vehicle (40% PEG400 in 0.9% saline) or I-1 into a saphenous vein 2 h after occlusion (2 h prior to restoration of MCA blood flow), followed immediately by a 22 h intravenous infusion. This dosing regimen was designed to rapidly achieve and maintain pre-determined plasma and cerebrospinal fluid (CSF) steady-state concentrations of I-1 based on its pharmacokinetics previously determined in näive and MCA occluded macaques (Tables A-C below)."}, "[2]": {"assay": "plasma and brain unbound fractions of I-1 in nonhuman primates", "format": "in vitro ADME", "settings": "nonhuman primate, Normal NHP (n = 3)"}, "[3]": {"assay": "pre-efficacy pharmacokinetic study, intravenous bolus/constant rate infusion in tMCAO cynomolgus monkeys", "format": "in vivo, cynomolgus monkey", "settings": "tMCAO (n = 1); for Kp at 22 h: cynomolgus monkey, CSF/plasma, intravenous, read-out: CSF/Plasma At 22-hour End of Dosing", "procedure": "as §1\nWe then proceeded to our key preclinical stroke efficacy model in nonhuman primates. Pre-efficacy pharmacokinetic studies obtained plasma and CSF pharmacokinetic data. The I-1 CSF concentrations were combined with receptor affinity data to estimate receptor occupancy, and the combination of CSF concentrations and associated receptor occupancies were used to set dose regimens for the efficacy study."}, "[4]": {"assay": "physiological parameter assessment during tMCAO study", "format": "in vivo, Macaca fascicularis", "procedure": "Body weight, core body temperature, mean arterial blood pressure (MABP), heart rate, pO2, pCO2, sO2 and blood pH were assessed prior to and after tMCAO at designated intervals in relation to reported normal physiological ranges for each parameter (references 22-23)."}, "[5]": {"system": "cynomolgus monkey model of transient middle cerebral artery occlusion (tMCAO)", "assay": "Neurologic Deficit Score (NDS) after tMCAO", "format": "in vivo, Macaca fascicularis", "settings": "study Days 1 to 5, I-1-treated composite versus vehicle, p=0.11", "description": "Twenty-four hours and 5 days after occlusion, neurologic deficits were scored using the Neurologic Deficits Score (NDS) as described elsewhere (reference 25). The NDS was considered as a secondary efficacy endpoint."}, "[6]": {"assay": "plasma protein binding (free fraction)", "format": "in vitro ADME", "settings": "mouse", "description": "(§2) Example 3 of U.S. Pat. No. 9,789,131, which is incorporated herein by reference, describes assays for determining the plasma and brain free fraction of certain compounds such as I-1. Compounds described herein may be evaluated using such assays or similar variants thereof."}, "[7]": {"assay": "brain tissue binding (free fraction)", "format": "in vitro ADME, mouse", "description": "as §2"}, "[8]": {"settings": "bolus 0.11 mg/kg / infusion 0.0582 mg/kg/hr"}, "[9]": {"settings": "bolus 1.7 mg/kg / infusion 0.9 mg/kg/hr"}, "[10]": {"settings": "bolus 5.2 mg/kg / infusion 2.76 mg/kg/hr"}},
  "note": "Read-outs that look alike come from different tables or passages of the source.",
  "data": [
    {"smiles": "CSc1nc(N)c2ncn([C@H]3C(O)C(O)[C@]4(CO)C[C@H]34)c2n1", "note": "(stereo in doubt) [Compound I-1]", "values": [
      {"measurement": "lesion growth rate (slope of lesion growth) after treatment initiation", "setting": "[1]; 1.8-6.0 h post-occlusion, versus vehicle and pre-treatment, composite p=0.004", "value": "rapid decrease in lesion growth rate"},
      {"measurement": "decrease in penumbra volume during the ischemic period", "setting": "[1]; I-1-treated composite (n=16), 0.5 h to 3.5 h post-occlusion, vehicle 71%, p=0.01", "value": 48, "unit": "%"},
      {"measurement": "rate of penumbra volume decrease", "setting": "[1]; I-1-treated composite, vehicle 604.5 mm^3/h", "value": 296.0, "unit": "mm^3/h"},
      {"measurement": "overall DWI lesion volume smaller compared to vehicle", "setting": "[1]; 24 h post-occlusion, p=0.07", "value": 20, "unit": "%"},
      {"measurement": "overall DWI lesion volume smaller compared to vehicle", "setting": "[1]; 120 h post-occlusion, p=0.05", "value": 30, "unit": "%"},
      {"measurement": "fraction unbound", "setting": "[2]; brain, read-out: Brain Unbound Fraction", "value": "0.56 ± 0.05"},
      {"measurement": "fraction unbound", "setting": "[2]; plasma, read-out: Plasma Unbound Fraction", "value": "0.26 ± 0.05"},
      {"measurement": "Kp at 22 h", "setting": "[3]; [8]", "value": 0.094},
      {"measurement": "Kp at 22 h", "setting": "[3]; [9]", "value": 0.084},
      {"measurement": "Kp at 22 h", "setting": "[3]; [10]", "value": 0.065},
      {"measurement": "Actual Time-Averaged Steady-State [Plasma]", "setting": "[3]; [8]", "value": 25, "unit": "ng/mL"},
      {"measurement": "Predicted Steady-State [Plasma]", "setting": "[3]; [8]", "value": 35, "unit": "ng/mL"},
      {"measurement": "Actual Time-Averaged Steady-State [Plasma]", "setting": "[3]; [9]", "value": 363, "unit": "ng/mL"},
      {"measurement": "Predicted Steady-State [Plasma]", "setting": "[3]; [9]", "value": 540, "unit": "ng/mL"},
      {"measurement": "Actual Time-Averaged Steady-State [Plasma]", "setting": "[3]; [10]", "value": 1812, "unit": "ng/mL"},
      {"measurement": "Predicted Steady-State [Plasma]", "setting": "[3]; [10]", "value": 1660, "unit": "ng/mL"},
      {"measurement": "physiological parameters versus vehicle-treated group", "setting": "[4]; baseline and during the study period", "value": "no clinically relevant differences"},
      {"measurement": "MABP or heart rate", "setting": "[4]; systemic I-1 administration, tMCAO macaques", "value": "did not result in significant alterations"},
      {"measurement": "neurological function (NDS) change", "setting": "[5]", "value": "improved but statistically non-significant"},
      {"measurement": "free (unbound) fraction in plasma", "setting": "[6]", "value": 0.74},
      {"measurement": "free (unbound) fraction in brain", "setting": "[7]; mouse brain tissue", "value": 0.13},
      {"measurement": "fraction available to interact with the A3 receptor, versus Cl-IB-IMECA", "setting": "[7]; mouse models", "value": "at least 1000 fold"}
    ]}
  ]
}
